From ChEMBL document CHEMBL1781960, “Discovery of non-glycoside sodium-dependent glucose co-transporter 2 (SGLT2) inhibitors by ligand-based virtual screening” (J Med Chem, 2010) come the findings set out here.

Test [1] deals with T1, Sodium/glucose cotransporter 2 (Homo sapiens, UniProt P31639).
T1 sequence (P31639 whole entry): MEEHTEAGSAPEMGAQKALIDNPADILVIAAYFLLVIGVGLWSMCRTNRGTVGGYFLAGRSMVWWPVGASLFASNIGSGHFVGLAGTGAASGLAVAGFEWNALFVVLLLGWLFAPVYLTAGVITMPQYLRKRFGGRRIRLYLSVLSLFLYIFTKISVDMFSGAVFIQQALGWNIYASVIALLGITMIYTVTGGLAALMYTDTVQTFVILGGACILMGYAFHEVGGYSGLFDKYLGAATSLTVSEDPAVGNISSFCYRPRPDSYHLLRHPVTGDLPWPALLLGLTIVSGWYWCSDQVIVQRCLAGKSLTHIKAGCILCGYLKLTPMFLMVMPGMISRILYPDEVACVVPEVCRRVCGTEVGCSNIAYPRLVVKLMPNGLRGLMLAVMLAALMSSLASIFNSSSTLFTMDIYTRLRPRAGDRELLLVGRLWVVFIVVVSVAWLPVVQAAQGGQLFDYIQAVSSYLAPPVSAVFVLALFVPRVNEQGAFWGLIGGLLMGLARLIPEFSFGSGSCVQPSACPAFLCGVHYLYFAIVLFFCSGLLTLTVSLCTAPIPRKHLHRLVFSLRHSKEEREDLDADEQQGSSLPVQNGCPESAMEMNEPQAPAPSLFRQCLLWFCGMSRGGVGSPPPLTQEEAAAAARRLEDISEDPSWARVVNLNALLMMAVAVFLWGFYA
Briefly: (§1) Inhibition of human SGLT2 expressed in CHO-K1 cells assessed as reduction in [14C]-alpha-methylglucopyranoside uptake after 2 hrs by liquid scintillation counting. Type of test: cell-based.

In test [2] the target is T2, Sodium/glucose cotransporter 2 (Homo sapiens) (UniProt P31639).
T2 sequence (whole entry): T1 sequence (P31639 whole entry)
The test is described as §1. Type of test: cell-based.

A word on the EC50: it is the concentration at which the effect is half-maximal. On to `OC[C@H]1O[C@@H](n2cc(Cc3ccc(C4CC4)cc3)c3c(F)cccc32)[C@H](O)[C@@H](O)[C@@H]1O`, for which the EC50 in test [1] came to 0.0019 µM. Still for that read-out and setting: the same measure for `COc1ccc(C(O)Cn2c(=N)n(Cc3ccccc3)c3ccccc32)cc1` (stereo not drawn): 16.2 µM; for `N=c1n(CC(=O)O)c2ccccc2n1Cc1ccc(Cl)cc1`: > 50 µM; for `Cn1cc(CCc2ccc3c(c2)CCO3)c2c(O[C@@H]3O[C@H](CO)[C@@H](O)[C@H](O)[C@H]3O)cccc21`: 0.067 µM. Still for that read-out and setting: the same measure for `CCOc1ccc(Cc2cc([C@@H]3O[C@H](CO)[C@@H](O)[C@H](O)[C@H]3O)ccc2C)cc1`: 0.0011 µM. On the same count and under the same terms, the same measure for `N=c1n(CCO)c2ccccc2n1Cc1ccc(Cl)cc1`: 31.1 µM. As for `COc1cc(C(Nc2cccc(C)n2)c2ccc3ccc(C)nc3c2O)cc(OC)c1OC` (stereo not drawn), the EC50 in test [1] turned out to be 5.92 µM. In addition, the inhibition result in test [2] is “Dose-dependent effect”. Turning to `N=c1n(CCO)c2ccccc2n1Cc1ccccc1`, in test [1], the EC50 is > 50 µM. On the same count and under the same terms, the same measure for `N=c1n(Cc2ccccc2)c2ccccc2n1CC(O)c1ccco1` (stereo not drawn): 34.7 µM. For `COc1ccc(NC(=S)NNC(=O)c2cc(-c3ccccc3)sc2N)cc1`, in test [1], the EC50 came out at 8.98 µM. The inhibition result in test [2] is “Dose-dependent effect”. As to `CCc1ccc(Cc2cc([C@@H]3O[C@H](CO)[C@@H](O)[C@H](O)[C@H]3O)ccc2C)cc1`, the EC50 in test [1] was determined as 0.012 µM.

As for `OC[C@H]1O[C@@H](n2cc(Cc3ccc(C4CC4)cc3)c3c(F)cc(F)cc32)[C@H](O)[C@@H](O)[C@@H]1O`, the EC50 in test [1] worked out at 0.0028 µM.

As to `N=c1n(Cc2ccccc2)c2ccccc2n1CC(O)c1cccs1` (stereo not drawn), the EC50 in test [1] was 19.1 µM.

In the case of `C=CCn1c(=N)n(CC(O)C(C)(C)C)c2ccccc21` (stereo not drawn), in test [1], the EC50 stood at 40.4 µM. Still for that read-out and setting: the value for `OC[C@H]1O[C@@H](n2cc(Cc3ccc(C4CC4)cc3)c3c(Cl)cccc32)[C@H](O)[C@@H](O)[C@@H]1O` was 0.0023 µM. With `CC(C)(C)C(O)Cn1c(=N)n(CCN2CCCCC2)c2ccccc21` (stereo not drawn), the EC50 in test [1] is > 50 µM. In the case of `CC(C)(C)C(O)Cn1c(=N)n(Cc2ccccc2)c2ccccc21` (stereo not drawn), the EC50 in test [1] worked out at 3.85 µM. The inhibition entry in test [2] is “Dose-dependent effect”. With `N=c1n(Cc2ccc(Cl)cc2)c2ccccc2n1CC(O)c1ccco1` (stereo not drawn), the EC50 in test [1] worked out at 11 µM.

`N=c1n(Cc2ccccc2)c2ccccc2n1CC(O)COc1ccccc1` (stereo not drawn): the EC50 in test [1] was 4.6 µM.

Turning to `OC[C@H]1O[C@@H](Oc2cccc3[nH]cc(CCc4ccc5c(c4)CCO5)c23)[C@H](O)[C@@H](O)[C@@H]1O`, the EC50 in test [1] stood at 0.024 µM.
